Marks after values point to notes of the source that are not given here. Where no end group is shown, it is not given here. [ ]: non-standard residue; d: D form. Cit = NC(=O)NCCC[C@H](N)C(=O)O
Key:
human sera = test: ELISA: binding of biotinylated collagen peptides to human sera; conditions: for mean (variance/SD) of the differences, absorbance value of citrullinated peptide minus that of arginine peptide: control samples; for Controls mean ± SD absorbance: 81 sera from healthy controls, read at 450 nm; for Controls over mean + 2 SD number: number of the 81 control sera; for RA patients over mean + 2 SD number: number of the 120 RA sera, significance marks versus controls; for specific binding to the citrullinated form (autoantibodies against citrullinated proteins): RA sera; for number of RA sera that bound more citrullinated peptide than normal (arginine) peptide: 120 RA sera
Text: The serum samples from 120 patients with RA were obtained from the Division of Rheumatology of Oulu University Hospital. The controls consisted of 81 sera from healthy people matched for age and sex. Six pairs of biotinylated peptides were synthesised by NeoMPS (Strasbourg, France). […] FIGS. 1A-C show the localization of the peptides CC1-CC4 in type II collagen and their sequences; the numbers in brackets refer to arginine residues: CC1 (1059), CC2 (1048), CC3 (799) and CC4 (28). Collagenase cleavage site is shown by arrow in FIG. 1A -GPPGPQG|LAGQRGE- (SEQ ID NO:9). […] The sequence GPPGPGIDMSAFAGLGPREKGPDPLQYMXA is shown in the sequence listing as SEQ ID NO: 10. The 12 carboxy terminal amino acids represent the peptide CC1. […] One member of each pair contained the arginine predicted by the respective gene, whereas in the other member of the pair this was replaced by citrulline.
The biotinylated peptides were coupled to streptavidin-coated 96-well assay plates (BioBind Assembly, Thermo Labsystems Oy, Vantaa, Finland) at a concentration of 10 μg/well. The coupling was performed at room temperature, pH 7.5, for two hours. The streptavidin-coated wells had been blocked by the manufacturer to prevent unspecific binding.
The sera to be tested were diluted in assay buffer (10 mM Tris-HCl, 350mM NaCl, 1% BSA, 1% [vol/vol] Triton X-100, 0.5% [wt/vol] Na-deoxycholate, 0.1% SDS; pH 7.6) supplemented with 1% rabbit serum and incubated for an hour at room temperature. After washing (3 times with PBS/0.05% [vol/vol] Tween-20), 100 μl of anti-human IgG conjugated to peroxidase (Product #31412, Pierce, Rockford, Ill., USA) diluted 1:7500 in EIA buffer (20 mM Tris-HCl, 150 mM NaCl, 0.1% BSA, 0.05% Tween-20, pH 7.5) was added. After incubation for an hour at room temperature, the plates were washed (3 times with PBS/Tween-20). The bound antibodies were detected with 3,3′-5,5′-tetramethyl-benzidine (Sigma-Aldrich, St.Louis, Minn., USA) as a substrate (0.01 mg/100 μl per well in 100 mM sodium acetate trihydrate, 1.5 mM citric acid monohydrate, 0.0015% H2O2). After 30 minutes, the reaction was stopped by adding 100 μl 2M sulphuric acid/well. The plates were read at a wavelength of 450 nm in a Victor^2 instrument (Wallac, Turku, Finland) and calculated by Multicalc (Wallac). All the sera were tested in duplicate. The coefficients of variation were generally less than 10%.

[1] = system: autoantibodies in sera binding citrulline containing type II collagen carboxytelopeptide; test: Inhibition assay: citrullinated peptide ELISA with and without soluble peptide; design: species or system human; conditions: soluble peptide 200 μg/ml
Method: Preferentially it is also possible to use only citrullinated peptide assay version, where this assay is performed with standard condition and with adding the same or similar soluble peptide in assay solution (200 μg/ml).
Sera from RA patients (n=120) and controls (n=80) were diluted 1:100 in assay buffer and/or inhibiting buffer (with soluble citrulline containing peptide (200 μg/ml)). The inhibition time was 30 minutes. After the inhibition reaction, the sera were moved to the wells of streptavidin-coated 96-well assay plates to which the biotinylated citrulline containing peptides had been coupled. After washing (3 times with PBS/0.05% [vol/vol] Tween-20), 100 μl of anti-human IgG conjugated to peroxidase (Product #31412, Pierce, Rockford, Ill., USA) diluted 1:7500 in EIA buffer (20 mM Tris-HCl, 150 mM NaCl, 0.1% BSA, 0.05% Tween-20, pH 7.5) was added. After incubation for an hour at room temperature, the plates were washed (3 times with PBS/Tween-20). The bound antibodies were detected with 3,3′-5,5′-tetramethyl-benzidine (Sigma-Aldrich, St.Louis, Minn., USA) as a substrate (0.01 mg/100 μl per well in 100 mM sodium acetate trihydrate, 1.5 mM citric acid monohydrate, 0.0015% H2O2). After 30 minutes, the reaction was stopped by adding 100 μl 2M sulphuric acid/well. The plates were read at a wavelength of 450 nm in a Victor instrument (Wallac, Turku, Finland). […]

[2] = system: IgG antibodies against the synthetic C-telopeptides of the α1 chains of human type I and II collagens; test: Two-site chemiluminescence immunoassay with biotinylated C-telopeptides; type: binding
Method: The measurements were done with two-site chemiluminescence immunoassays, which detect IgG antibodies against the synthetic C-telopeptides of the α1 chains of human type I and II collagens (EKAHDGGRYYRA (SEQ ID NO:4), and EKGPDPLQYMRA (SEQ ID NO:5), or EKAHDGGRYYXA (SEQ ID NO:1), and EKGPDPLQYMXA (SEQ ID NO:3), respectively, where X stands for citrulline, from NeoMPS, Strasbourg, France). The serum samples were first diluted 1:10 in a buffer containing 10 mM Tris-HCl, 350 mM NaCl, 1% BSA, 1% [vol/vol] Triton X-100, 0.5% [wt/vol] Na-deoxycholate, 0.1% SDS; pH 7.6 and incubated with suitable concentrations of one of the above peptides (in biotinylated form) and streptavidin-coated magnetic particles for 10 minutes at 37° C. The unbound biotinylated antigen and antibodies were separated from the complex bound to the magnetic particles by aspiration of the reaction mixture and subsequent washing. Thereafter, acridinium-labeled anti-human IgG antibodies were added to the reaction mixture followed by another 10-minute incubation to produce the sandwich complex. The unbound label was separated by aspiration of the reaction mixture and subsequent washing. To the washed magnetic particles with the complex we injected the triggers 1 and 2, initiating the chemiluminescence reaction. […]

| Sequence | mean (variance/SD) of the differences, absorbance value of citrullinated peptide minus that of arginine peptide (human sera) | Controls mean ± SD absorbance (human sera) | Controls over mean + 2 SD number (human sera) | RA patients over mean + 2 SD number (human sera) | also measured |
| --- | --- | --- | --- | --- | --- |
| YDFGYDGDFYXA (YDFGYDGDFY[Cit]A; also: biotinylated (site not given here)) [listing 1 of 2 here] | +0.071 (0.252) |  |  |  |  |
| EKGPDPLQYMRA (listed as Homo sapiens) [CC1 Arginine peptide, C-telopeptide of the α1 chain of type II collagen] |  | 0.181 ± 0.077 | 2/81 | 54/120*** |  |
| LAGQXGIVGLP [CC3 Arginine peptide] |  | 0.182 ± 0.073 |  | 63/120*** |  |
| EKGPDPLQYMXA (EKGPDPLQYM[Cit]A; also: biotinylated, site not given here) [CC1 Citrulline peptide] |  | 0.155 ± 0.065 | 2/81 | 35/120*** | inhibition-% with the respective soluble antigen in controls (mean±SD) ([1]; control sera diluted 1:100, 30 minutes): 5.4%±3.8; number of RA patients showing increased inhibition ([1]; out of 120, more inhibition than 13.0%): 38 |
| SAFAGLGPXEKGPD [CC2 Arginine peptide] |  | 0.162 ± 0.053 | 3/81 | 50/120*** |  |
| LAGQXGIVGLP (LAGQ[Cit]GIVGLP; also: biotinylated (site not given here)) [CC3 Citrulline peptide] |  | 0.181 ± 0.067 | 2/81 | 32/120*** |  |
| LAGQXGIVGLP (LAGQ[Cit]GIVGLP; also: biotinylated (site not given here)) [CC3] | −0.001 (0.026) |  |  |  | specific binding to the citrullinated form (autoantibodies against citrullinated proteins) (human sera): no specific binding |
| SAFAGLGPXEKGPD (SAFAGLGP[Cit]EKGPD; also: biotinylated (site not given here)) [CC2 Citrulline peptide] |  | 0.135 ± 0.054 | 1/81 | 25/120*** |  |
| GPMGPXGPPGPA (GPMGP[Cit]GPPGPA; also: biotinylated (site not given here)) [CC4] | +0.005 (0.020) |  |  |  | specific binding to the citrullinated form (autoantibodies against citrullinated proteins) (human sera): no specific binding |
| SAFAGLGPXEKGPD (SAFAGLGP[Cit]EKGPD; also: biotinylated (site not given here)) [CC2] | −0.027 (0.029) |  |  |  | number of RA sera that bound more citrullinated peptide than normal (arginine) peptide (human sera): two |
| GPMGPXGPPGPA [CC4 Arginine peptide] (GPMGPRGPPGPA; also: biotinylated, site not given here) [type II collagen peptide, arginine residue 28] |  | 0.179 ± 0.070 | 3/81 | 60/120*** |  |
| YDFGYDGDFYXA (YDFGYDGDFY[Cit]A; also: biotinylated (site not given here)) [listing 2 of 2 here] |  | 0.763 ± 0.356 | 3/81 | 12/120** |  |
| GPMGPXGPPGPA (GPMGP[Cit]GPPGPA; also: biotinylated (site not given here)) [CC4 Citrulline peptide] |  | 0.184 ± 0.071 | 2/81 | 22/120*** |  |
| EKGPDPLQYMXA (EKGPDPLQYM[Cit]A; also: biotinylated, site not given here) [CC1] | −0.026 (SD 0.032) |  |  |  | number of RA sera that bound more citrullinated peptide than normal (arginine) peptide (human sera): 12; specific binding to the citrullinated form (autoantibodies against citrullinated proteins) (human sera): specifically bound autoantibodies against citrullinated proteins; number of patients' sera that bound the citrullinated peptide more strongly than the arginine peptide ([2]; 120 RA patients, p=0.074 compared to controls, not significant): 35 |
| EKAHDGGRYYXA (EKAHDGGRYY[Cit]A; also: biotinylated, site not given here) | around +0.026 (0.074) | 0.314 ± 0.117 | 2/81 | 24/120*** | number of RA sera that bound more citrullinated peptide than normal (arginine) peptide (human sera): 20; number of RA patients whose sera showed increased binding of the citrullinated peptide ([2]; out of 120 RA patients, p=0.003 compared to controls): 44 |
| EKAHDGGRYYRA (also: biotinylated, site not given here; listed as Homo sapiens) [C-telopeptide of α1(I) Arginine peptide, synthetic C-telopeptide of the α1 chain of human type I collagen] |  | 0.288 ± 0.142 | 4/81 | 6/120^ns |  |
